In article PMC11428215, “Unveiling a New Antimicrobial Peptide with Efficacy against P. aeruginosa and K. pneumoniae from Mangrove-Derived Paenibacillus thiaminolyticus NNS5-6 and Genomic Analysis” (Antibiotics, 2024):
No end group written: not given here.

Experiments:
P. aeruginosa TISTR 357 [1] = format: cell-based, Pseudomonas aeruginosa; conditions: TISTR 357, 24 h
Procedure: (§1) The MIC and MBC of the purified AMP were determined using the broth microdilution method following the guidance provided by the Clinical and Laboratory Standards Institute (CLSI). P. aeruginosa TISTR 357 and K. pneumoniae TISTR 1383 were cultured on MH agar and incubated at 37 °C for 18 h. A single colony of the tested bacteria was suspended in 0.85% NaCl until the suspension turbidity reached an OD of 0.1 at 625 nm. The cells were then diluted to 5 × 10^6 CFU/mL using cation-adjusted Mueller Hinton broth (CAMHB). The diluted cell suspension of 10 µL was transferred into each well of a 96-well plate with a final volume of 100 µL per well. The AMP was added to achieve final concentrations ranging from 0.125 to 64 µg/mL. Colistin was used as the positive control, while antibiotic-free samples were used as negative controls. The 96-well plate was incubated at 37 °C for 24 h. Each strain was tested in triplicate. […] Subsequently, 100 µL of each dilution was spread on MH agar and then incubated at 37 °C for 24 h. The MBC was identified as the lowest concentration at which no bacterial colony growth was observed on the agar plate.

K. pneumoniae TISTR 1383 [2] = format: cell-based, Klebsiella pneumoniae; conditions: TISTR 1383, 24 h
Procedure: as §1

P. aeruginosa TISTR 357 [3] = assay: Time-kill assay; format: cell-based, Pseudomonas aeruginosa; conditions: for reduction rate of viable cells: from initial treatment until eradication, 5 × 10^5 CFU/mL, CAMHB, 37 °C
Procedure: (§2) P. aeruginosa TISTR 357 and K. pneumoniae TISTR 1383 were separately adjusted to an initial treatment cell density of 5 × 10^5 CFU/mL with CAMHB. The experiment preparation followed the microdilution assay procedures. […] The reactions were carried out at 37 °C, followed by spreading the entire volume from each well in each treatment condition on MH agar at specific time intervals (0–24 h). The plates were placed in a 37 °C incubator for 24 h before counting the colonies. The trends in bacterial reduction were graphically depicted using a logarithmic scale of viable cells. The bacterial cell reduction was determined within 24 h. Each experiment was performed in triplicate on the 96-well plates.

K. pneumoniae TISTR 1383 [4] = assay: Time-kill assay; format: cell-based, Klebsiella pneumoniae; conditions: for reduction rate of viable cells: 5 × 10^5 CFU/mL, CAMHB, 37 °C
Procedure: as §2

K. pneumoniae TISTR 1383 [5] = assay: Sytox Green uptake assay (cell membrane permeability); format: cell-based, Klebsiella pneumoniae; conditions: 2× MIC; Sytox Green 10 µM, over 24 h; mean ± SD, triplicate
Procedure: The cell suspension was diluted with the diluent until the OD at 625 nm was equal to 0.1 (1.5 × 10^8 CFU/mL). An aliquot of the diluted cells (100 μL) was introduced into each well and incubated with 10 μM of Sytox Green (Thermo Fisher Scientific Inc., Waltham, MA, USA) in the dark for 15 min. […] After the introduction of the AMP, the cell membrane permeability of treated bacteria was evaluated by monitoring the fluorescence intensity resulting from the penetration of Sytox Green across the compromised cell membrane and subsequently binding to nucleic acid. […] Significant differences in fluorescence intensity of overall time points were analyzed by one-way ANOVA (p-value < 0.05) and post hoc Tukey’s test for multiple comparisons between treated and non-treated conditions [52].

P. aeruginosa TISTR 357 [6] = assay: Stability against temperatures, residual antibacterial activity; format: physicochemical, Pseudomonas aeruginosa; conditions: AMP 16 µg/mL, agar well diffusion read-out, % of non-treated AMP, mean ± SD, n = 3
Procedure: (§3) The AMP was dissolved in sterile purified water and adjusted a final concentration to 16 µg/mL. The sensitivity of the AMP to temperatures of 37, 40, 50, 60, 80, and 100 °C, as well as autoclaving at 121 °C for 15 and 30 min was evaluated. The sensitivity of the AMP to proteolytic enzymes with different digesting characteristics was studied by incubating with a concentration of 1 mg/mL of proteinase K, trypsin, and α-chymotrypsin (Sigma-Aldrich, Warren, MI, USA). The compatibility of the AMP with surfactants was evaluated by exposing the AMP to 1% SDS or 1% Triton X-100 (AppliChem GmbH, Darmstadt, Germany). The degradation of the AMP under various pH conditions, including physiological and extended alkaline conditions, was evaluated by adjusting the pH of the solution to 1.2, 4.5, 6.8, 7.4, 8.0, 10.0, 12.0, and 14.0. After incubation, the pH of the AMP solution was neutralized to the original pH before being assessed for antibacterial activity. The antibacterial assay against P. aeruginosa TISTR 357 was conducted using the agar well diffusion assay in triplicate. The stability profiles are presented as the percentage of the residual activity compared with the non-treatment conditions (mean ± SD), and statistical significance was determined by the Student’s t-test at a p-value < 0.05.

P. aeruginosa TISTR 357 [7] = assay: Compatibility with surfactants, residual antibacterial activity; format: physicochemical, Pseudomonas aeruginosa; conditions: with 1% SDS, AMP 16 µg/mL, agar well diffusion read-out, % of non-treated AMP, mean ± SD, n = 3
Procedure: as §3

VKGDGGPGTVYTM [NNS5-6 AMP]
MBC (P. aeruginosa TISTR 357 [1]): 4 µg/mL
MIC (P. aeruginosa TISTR 357 [1]): 4 µg/mL
MBC (K. pneumoniae TISTR 1383 [2]): 8 µg/mL
MIC (K. pneumoniae TISTR 1383 [2]): 4 µg/mL
reduction rate of viable cells (P. aeruginosa TISTR 357 [3]; 1× MIC): 0.6297 log CFU/h
treatment time to eradication of viable cells (P. aeruginosa TISTR 357 [3]; 1× and 2× MIC): 8 h
reduction rate of viable cells (P. aeruginosa TISTR 357 [3]; 2× MIC): 0.6421 log CFU/h
reduction of viable cells (K. pneumoniae TISTR 1383 [4]; 1× MIC, until 24 h of treatment, growth only suppressed): up to 2 log (CFU/mL)
reduction rate of viable cells (K. pneumoniae TISTR 1383 [4]; 1× MIC): 0.0579 log CFU/h
treatment time to eradication of viable cells (K. pneumoniae TISTR 1383 [4]; 2× MIC): ≤ 8 h
reduction rate of viable cells (K. pneumoniae TISTR 1383 [4]; 2× MIC): 0.5715 log CFU/h
fold increase in fluorescence intensity compared with non-treatment (K. pneumoniae TISTR 1383 [5]): 3.21 ± 0.29 fold
% Residual Activity of NNS5-6 AMP against P. aeruginosa TISTR 357 (P. aeruginosa TISTR 357 [6]; 37 °C, 1 h): 99.39 ± 1.98%
% Residual Activity of NNS5-6 AMP against P. aeruginosa TISTR 357 (P. aeruginosa TISTR 357 [6]; 37 °C, 6 h): 99.39 ± 0.61%
% Residual Activity of NNS5-6 AMP against P. aeruginosa TISTR 357 (P. aeruginosa TISTR 357 [6]; 37 °C, 12 h): 99.69 ± 0.95%
% Residual Activity of NNS5-6 AMP against P. aeruginosa TISTR 357 (P. aeruginosa TISTR 357 [6]; 40 °C, 1 h): 99.80 ± 0.94%
% Residual Activity of NNS5-6 AMP against P. aeruginosa TISTR 357 (P. aeruginosa TISTR 357 [6]; 40 °C, 6 h): 99.19 ± 0.93%
% Residual Activity of NNS5-6 AMP against P. aeruginosa TISTR 357 (P. aeruginosa TISTR 357 [6]; 40 °C, 12 h): 99.07 ± 0.72%
% Residual Activity of NNS5-6 AMP against P. aeruginosa TISTR 357 (P. aeruginosa TISTR 357 [6]; 50 °C, 1 h): 65.16 ± 3.07 %
% Residual Activity of NNS5-6 AMP against P. aeruginosa TISTR 357 (P. aeruginosa TISTR 357 [6]; 50 °C, 6 h): 0.00 ± 0.00 %
% Residual Activity of NNS5-6 AMP against P. aeruginosa TISTR 357 (P. aeruginosa TISTR 357 [6]; 50 °C, 12 h): 0.00 ± 0.00 %
% Residual Activity of NNS5-6 AMP against P. aeruginosa TISTR 357 (P. aeruginosa TISTR 357 [6]; 60 °C, 1 h): 0.00 ± 0.00 %
% Residual Activity of NNS5-6 AMP against P. aeruginosa TISTR 357 (P. aeruginosa TISTR 357 [6]; 60 °C, 6 h): 0.00 ± 0.00 %
% Residual Activity of NNS5-6 AMP against P. aeruginosa TISTR 357 (P. aeruginosa TISTR 357 [6]; 60 °C, 12 h): 0.00 ± 0.00 %
% Residual Activity of NNS5-6 AMP against P. aeruginosa TISTR 357 (P. aeruginosa TISTR 357 [6]; 80 °C, 1 h): 0.00 ± 0.00 %
% Residual Activity of NNS5-6 AMP against P. aeruginosa TISTR 357 (P. aeruginosa TISTR 357 [6]; 80 °C, 6 h): 0.00 ± 0.00 %
% Residual Activity of NNS5-6 AMP against P. aeruginosa TISTR 357 (P. aeruginosa TISTR 357 [6]; 80 °C, 12 h): 0.00 ± 0.00 %
% Residual Activity of NNS5-6 AMP against P. aeruginosa TISTR 357 (P. aeruginosa TISTR 357 [6]; 100 °C, 1 h): 0.00 ± 0.00 %
% Residual Activity of NNS5-6 AMP against P. aeruginosa TISTR 357 (P. aeruginosa TISTR 357 [6]; 100 °C, 6 h): 0.00 ± 0.00 %
% Residual Activity of NNS5-6 AMP against P. aeruginosa TISTR 357 (P. aeruginosa TISTR 357 [6]; 100 °C, 12 h): 0.00 ± 0.00 %
% Residual Activity of NNS5-6 AMP against P. aeruginosa TISTR 357 (P. aeruginosa TISTR 357 [6]; autoclave 121 °C, 15 psi, 15 min (same value in 1 h, 6 h and 12 h)): 0.00 ± 0.00 %
% Residual Activity of NNS5-6 AMP against P. aeruginosa TISTR 357 (P. aeruginosa TISTR 357 [6]; autoclave 121 °C, 15 psi, 30 min (same value in 1 h, 6 h and 12 h)): 0.00 ± 0.00 %
% Residual Activity of NNS5-6 AMP against P. aeruginosa TISTR 357 (P. aeruginosa TISTR 357 [7]; 1 h): 116.77 ± 1.80 %
% Residual Activity of NNS5-6 AMP against P. aeruginosa TISTR 357 (P. aeruginosa TISTR 357 [7]; 6 h): 122.52 ± 1.86 %
